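Protocol summary: plate cells (96-well), add compound at 5 concentrations, incubate 48 h, interpolate endpoints linearly. GI50: concentration for 50% inhibition of growth.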 Activity calls are given as the source filed them. Cut-off read from the data, not from the text of the source: active = GI50 up to about 1.1 µM and inactive = higher.
Assays:
Test in all cases: growth of human tumour cells (NCI), 48 h
IGROV-1 = test system: IGROV-1
SW-620 = test system: SW-620
NCI/ADR-RES = test system: NCI/ADR-RES
MCF7 = test system: MCF7
T47D = test system: T47D
UACC-62 = test system: UACC-62
SN12C = test system: SN12C
ACHN = test system: ACHN
SF-295 = test system: SF-295
UACC-257 = test system: UACC-257
HL-60 = test system: HL-60
TK-10 = test system: TK-10
MDA-MB-231 = test system: MDA-MB-231
SF-268 = test system: SF-268
SNB-19 = test system: SNB-19
A498 = test system: A498
NCI-H460 = test system: NCI-H460
K562 = test system: K562
OVCAR-4 = test system: OVCAR-4
HCC 2998 = test system: HCC 2998
EKVX = test system: EKVX
CCRF-CEM = test system: CCRF-CEM
SNB-75 = test system: SNB-75
MDA-MB-435 = test system: MDA-MB-435
SK-MEL-2 = test system: SK-MEL-2
UO-31 = test system: UO-31
SK-OV-3 = test system: SK-OV-3
SK-MEL-5 = test system: SK-MEL-5
NCI-H226 = test system: NCI-H226
DU-145 = test system: DU-145
HCT-116 = test system: HCT-116
NCI-H23 = test system: NCI-H23
A549 = test system: A549
MDA-N = test system: MDA-N
OVCAR-3 = test system: OVCAR-3
OVCAR-5 = test system: OVCAR-5
COLO 205 = test system: COLO 205
KM12 = test system: KM12
SK-MEL-28 = test system: SK-MEL-28
CAKI-1 = test system: CAKI-1
NCI-H522 = test system: NCI-H522
HCT-15 = test system: HCT-15
Hs-578T = test system: Hs-578T
OVCAR-8 = test system: OVCAR-8
Malme-3M = test system: Malme-3M
786-0 = test system: 786-0
RPMI-8226 = test system: RPMI-8226
HOP-62 = test system: HOP-62
M14 = test system: M14
MOLT-4 = test system: MOLT-4
U-251 = test system: U-251
PC-3 = test system: PC-3
BT-549 = test system: BT-549
HT-29 = test system: HT-29
SF-539 = test system: SF-539
LOX IMVI = test system: LOX IMVI
HOP-92 = test system: HOP-92
RXF 393 = test system: RXF 393

Compound: COc1ccccc1C1SCC(=O)N1c1ccc(-c2ccc(-n3c(-c4ccccc4)nc4ccccc4c3=O)cc2)cc1 (stereo not drawn)
- GI50 (IGROV-1): > 100 µM (inactive)
- GI50 (SW-620): > 100 µM (inactive)
- GI50 (NCI/ADR-RES): > 100 µM (inactive)
- GI50 (MCF7): > 100 µM (inactive)
- GI50 (T47D): 91 µM (inactive)
- GI50 (UACC-62): 84.3 µM (inactive)
- GI50 (SN12C): > 100 µM (inactive)
- GI50 (ACHN): > 100 µM (inactive)
- GI50 (SF-295): > 100 µM (inactive)
- GI50 (UACC-257): > 100 µM (inactive)
- GI50 (HL-60): > 100 µM (inactive)
- GI50 (TK-10): > 100 µM (inactive)
- GI50 (MDA-MB-231): > 100 µM (inactive)
- GI50 (SF-268): > 100 µM (inactive)
- GI50 (SNB-19): > 100 µM (inactive)
- GI50 (A498): > 100 µM (inactive)
- GI50 (NCI-H460): > 100 µM (inactive)
- GI50 (K562): > 100 µM (inactive)
- GI50 (OVCAR-4): > 10 µM (inactive)
- GI50 (HCC 2998): > 100 µM (inactive)
- GI50 (EKVX): > 100 µM (inactive)
- GI50 (CCRF-CEM): > 100 µM (inactive)
- GI50 (SNB-75): > 100 µM (inactive)
- GI50 (MDA-MB-435): > 100 µM (inactive)
- GI50 (SK-MEL-2): > 100 µM (inactive)
- GI50 (UO-31): 29.9 µM (inactive)
- GI50 (SK-OV-3): > 100 µM (inactive)
- GI50 (SK-MEL-5): > 100 µM (inactive)
- GI50 (NCI-H226): > 100 µM (inactive)
- GI50 (DU-145): > 100 µM (inactive)
- GI50 (HCT-116): > 100 µM (inactive)
- GI50 (NCI-H23): > 100 µM (inactive)
- GI50 (A549): > 100 µM (inactive)
- GI50 (MDA-N): > 100 µM (inactive)
- GI50 (OVCAR-3): > 100 µM (inactive)
- GI50 (OVCAR-5): > 100 µM (inactive)
- GI50 (COLO 205): > 100 µM (inactive)
- GI50 (KM12): > 100 µM (inactive)
- GI50 (SK-MEL-28): > 100 µM (inactive)
- GI50 (CAKI-1): > 100 µM (inactive)
- GI50 (NCI-H522): > 100 µM (inactive)
- GI50 (HCT-15): > 100 µM
- GI50 (Hs-578T): > 100 µM (inactive)
- GI50 (OVCAR-8): > 100 µM (inactive)
- GI50 (Malme-3M): > 100 µM (inactive)
- GI50 (786-0): > 100 µM (inactive)
- GI50 (RPMI-8226): > 100 µM (inactive)
- GI50 (HOP-62): > 100 µM (inactive)
- GI50 (M14): > 100 µM (inactive)
- GI50 (MOLT-4): > 100 µM (inactive)
- GI50 (U-251): > 100 µM (inactive)
- GI50 (PC-3): > 100 µM (inactive)
- GI50 (BT-549): > 100 µM (inactive)
- GI50 (HT-29): > 100 µM (inactive)
- GI50 (SF-539): 31 µM (inactive)
- GI50 (LOX IMVI): > 100 µM (inactive)

Compound: O=C1N/C(=N/N=C/c2c[nH]c3ccccc23)N/C1=C\c1cccs1
- GI50 (IGROV-1): > 100 µM (inactive)
- GI50 (SW-620): > 100 µM (inactive)
- GI50 (NCI/ADR-RES): 55.3 µM (inactive)
- GI50 (MCF7): 41.4 µM (inactive)
- GI50 (T47D): > 100 µM (inactive)
- GI50 (UACC-62): 73.3 µM (inactive)
- GI50 (SN12C): > 100 µM (inactive)
- GI50 (ACHN): > 100 µM (inactive)
- GI50 (SF-295): > 100 µM (inactive)
- GI50 (UACC-257): 77.3 µM (inactive)
- GI50 (HOP-92): 49 µM (inactive)
- GI50 (HL-60): 19.4 µM (inactive)
- GI50 (TK-10): > 100 µM (inactive)
- GI50 (MDA-MB-231): 40.4 µM (inactive)
- GI50 (SF-268): > 100 µM (inactive)
- GI50 (SNB-19): 14.8 µM (inactive)
- GI50 (A498): 16.2 µM (inactive)
- GI50 (NCI-H460): > 100 µM (inactive)
- GI50 (K562): > 100 µM (inactive)
- GI50 (OVCAR-4): > 100 µM (inactive)
- GI50 (EKVX): > 100 µM (inactive)
- GI50 (CCRF-CEM): 4.44 µM (inactive)
- GI50 (SNB-75): > 100 µM (inactive)
- GI50 (MDA-MB-435): 43.3 µM (inactive)
- GI50 (SK-MEL-2): 45.5 µM (inactive)
- GI50 (UO-31): > 100 µM (inactive)
- GI50 (SK-OV-3): 38.6 µM (inactive)
- GI50 (SK-MEL-5): 70.3 µM (inactive)
- GI50 (NCI-H226): > 100 µM (inactive)
- GI50 (DU-145): > 100 µM (inactive)
- GI50 (HCT-116): 53.8 µM (inactive)
- GI50 (RXF 393): 75.3 µM (inactive)
- GI50 (NCI-H23): > 100 µM (inactive)
- GI50 (A549): 76.6 µM (inactive)
- GI50 (MDA-N): > 100 µM (inactive)
- GI50 (OVCAR-3): 30.7 µM (inactive)
- GI50 (OVCAR-5): > 100 µM (inactive)
- GI50 (COLO 205): > 100 µM (inactive)
- GI50 (KM12): 55.8 µM (inactive)
- GI50 (SK-MEL-28): > 100 µM (inactive)
- GI50 (CAKI-1): > 100 µM (inactive)
- GI50 (NCI-H522): > 100 µM (inactive)
- GI50 (HCT-15): > 100 µM
- GI50 (Hs-578T): > 100 µM (inactive)
- GI50 (OVCAR-8): > 100 µM (inactive)
- GI50 (Malme-3M): 61.8 µM (inactive)
- GI50 (786-0): > 100 µM (inactive)
- GI50 (RPMI-8226): 40.4 µM (inactive)
- GI50 (HOP-62): > 100 µM (inactive)
- GI50 (M14): 75.3 µM (inactive)
- GI50 (MOLT-4): > 100 µM (inactive)
- GI50 (U-251): 36.2 µM (inactive)
- GI50 (PC-3): 16.1 µM (inactive)
- GI50 (BT-549): > 100 µM (inactive)
- GI50 (HT-29): 52.2 µM (inactive)
- GI50 (SF-539): > 100 µM (inactive)
- GI50 (LOX IMVI): 56.9 µM (inactive)

Reference: ChEMBL document CHEMBL1201862, “PubChem BioAssay data set” (2004)
